Experimental data reported in PubChem BioAssay (NCI).
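96-well plates; 48 h exposure; 5 concentrations. Endpoints by linear interpolation between flanking doses. Not reached: highest tested concentration assigned. GI50: concentration for 50% inhibition of growth. The concentration for full growth arrest is given as TGI.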

What was measured:
Test in all cases: inhibition of tumour cell growth, NCI panel, 48 h
[1] = tested on: U251 CNS
[2] = tested on: LOX IMVI melanoma
[3] = tested on: COLO 205 colon
[4] = tested on: PC-3 prostate
[5] = tested on: SN12C renal
[6] = tested on: MOLT-4 leukemia
[7] = tested on: RXF 393 renal
[8] = tested on: UACC-257 melanoma
[9] = tested on: NCI-H23 lung
[10] = tested on: A498 renal
[11] = tested on: SF-295 CNS
[12] = tested on: SK-OV-3 ovarian
[13] = tested on: NCI-H460 lung
[14] = tested on: SW-620 colon
[15] = tested on: UO-31 renal
[16] = tested on: MALME-3M melanoma
[17] = tested on: OVCAR-4 ovarian
[18] = tested on: MCF7 breast
[19] = tested on: SNB-19 CNS
[20] = tested on: 786-0 renal
[21] = tested on: SK-MEL-2 melanoma
[22] = tested on: EKVX NSCLC
[23] = tested on: ACHN renal
[24] = tested on: SK-MEL-5 melanoma
[25] = tested on: CAKI-1 renal
[26] = tested on: NCI-H522 lung
[27] = tested on: UACC-62 melanoma
[28] = tested on: OVCAR-8 ovarian
[29] = tested on: MDA-MB-435
[30] = tested on: HS 578T breast
[31] = tested on: M14 melanoma
[32] = tested on: RPMI-8226 leukemia
[33] = tested on: KM12 colon
[34] = tested on: SR leukemia
[35] = tested on: T-47D breast
[36] = tested on: K-562 leukemia
[37] = tested on: HCT-15 colon
[38] = tested on: OVCAR-3 ovarian
[39] = tested on: SF-268 CNS
[40] = tested on: HCC-2998 colon
[41] = tested on: IGROV1 ovarian
[42] = tested on: TK-10 renal
[43] = tested on: HT29 colon
[44] = tested on: HOP-92 NSCLC
[45] = tested on: NCI-H226 lung
[46] = tested on: A549 NSCLC
[47] = tested on: HCT-116 colon
[48] = tested on: SK-MEL-28 melanoma
[49] = tested on: NCI/ADR-RES ovarian
[50] = tested on: DU-145 prostate
[51] = tested on: CCRF-CEM leukemia
[52] = tested on: HL-60(TB) leukemia
[53] = tested on: BT-549 breast
[54] = tested on: HOP-62 NSCLC
[55] = tested on: SF-539 CNS
[56] = tested on: MDA-MB-231 breast
[57] = tested on: OVCAR-5 ovarian
[58] = tested on: SNB-75 CNS

SMILES: CCCCC(CCCCCC(CCCC)NCc1ccc2c(c1)OCO2)NCc1ccc2c(c1)OCO2 (stereo unspecified)
- GI50 [1]: 207 nM
- TGI [1]: 438 nM
- GI50 [2]: 220 nM
- TGI [2]: 581 nM
- GI50 [3]: 189 nM
- TGI [3]: 350 nM
- GI50 [4]: 1010 nM
- TGI [4]: 2530 nM
- GI50 [5]: 1420 nM
- TGI [5]: 2960 nM
- GI50 [6]: 262 nM
- TGI [6]: 653 nM
- GI50 [7]: 213 nM
- TGI [7]: 413 nM
- GI50 [8]: 199 nM
- TGI [8]: 378 nM
- GI50 [9]: 1320 nM
- TGI [9]: 2710 nM
- GI50 [10]: 1490 nM
- TGI [10]: 2830 nM
- GI50 [11]: 1760 nM
- TGI [11]: 3400 nM
- GI50 [12]: 1770 nM
- TGI [12]: 3160 nM
- GI50 [13]: 236 nM
- TGI [13]: 519 nM
- GI50 [14]: 206 nM
- TGI [14]: 437 nM
- GI50 [15]: 481 nM
- TGI [15]: 1160 nM
- GI50 [16]: 1090 nM
- TGI [16]: 2560 nM
- GI50 [17]: 1460 nM
- TGI [17]: 2810 nM
- GI50 [18]: 273 nM
- TGI [18]: 744 nM
- GI50 [19]: 1300 nM
- TGI [19]: 2590 nM
- GI50 [20]: 1250 nM
- TGI [20]: 2530 nM
- GI50 [21]: 336 nM
- TGI [21]: 835 nM
- GI50 [22]: 1370 nM
- TGI [22]: 2870 nM
- GI50 [23]: 1170 nM
- TGI [23]: 2400 nM
- GI50 [24]: 758 nM
- TGI [24]: 2000 nM
- GI50 [25]: 669 nM
- TGI [25]: 1760 nM
- GI50 [26]: 604 nM
- TGI [26]: 1270 nM
- GI50 [27]: 1570 nM
- TGI [27]: 3120 nM
- GI50 [28]: 393 nM
- TGI [28]: 967 nM
- GI50 [29]: 199 nM
- TGI [29]: 398 nM
- GI50 [30]: 977 nM
- TGI [30]: 2920 nM
- GI50 [31]: 182 nM
- TGI [31]: 324 nM
- GI50 [32]: 276 nM
- TGI [32]: 805 nM
- GI50 [33]: 232 nM
- TGI [33]: 510 nM
- GI50 [34]: 215 nM
- TGI [34]: 495 nM
- GI50 [35]: 315 nM
- TGI [35]: 933 nM
- GI50 [36]: 186 nM
- TGI [36]: 460 nM
- GI50 [37]: 326 nM
- TGI [37]: 1090 nM
- GI50 [38]: 936 nM
- TGI [38]: 2250 nM
- GI50 [39]: 905 nM
- TGI [39]: 2220 nM
- GI50 [40]: 178 nM
- TGI [40]: 322 nM
- GI50 [41]: 887 nM
- TGI [41]: 2220 nM
- GI50 [42]: 1430 nM
- TGI [42]: 2880 nM
- GI50 [43]: 262 nM
- TGI [43]: 687 nM
- GI50 [44]: 569 nM
- TGI [44]: 2080 nM
- GI50 [45]: 1910 nM
- TGI [45]: 4020 nM
- GI50 [46]: 426 nM
- TGI [46]: 1020 nM
- GI50 [47]: 194 nM
- TGI [47]: 369 nM
- GI50 [48]: 188 nM
- TGI [48]: 337 nM
- GI50 [49]: 711 nM
- TGI [49]: 1930 nM
- GI50 [50]: 803 nM
- TGI [50]: 2040 nM
- GI50 [51]: 524 nM
- TGI [51]: 2580 nM
- GI50 [52]: 458 nM
- TGI [52]: 1210 nM
- GI50 [53]: 1480 nM
- TGI [53]: 3060 nM
- GI50 [54]: 836 nM
- TGI [54]: 2130 nM
- GI50 [55]: 664 nM
- TGI [55]: 1480 nM
- GI50 [56]: 539 nM
- TGI [56]: 1830 nM
- GI50 [57]: 1660 nM
- TGI [57]: 3080 nM
- GI50 [58]: 1460 nM
- TGI [58]: 2780 nM
